Experimental findings from patent US20110053966A1, “SYNERGISTIC FUNGICIDAL COMPOSITIONS CONTAINING A 5-FLUOROPYRIMIDINE DERIVATIVE FOR FUNGAL CONTROL IN CEREALS” (DOW AGROSCIENCES LLC, priority 2009, published 2011) are described below.

Test [1] concerns Septoria tritici (SEPTTR). The experiment in a line: 1-day protectant test (1DP) vs. leaf blotch of wheat. It counts as in vivo. Conditions: Zymoseptoria tritici, 1DP SEPTTR, read-out: % DC Obs (percent disease control observed). Here is the method:
(§1) Evaluation of Curative and Protectant Activity of Fungicide Mixtures vs. Leaf Blotch of Wheat (Mycosphaerella graminicola; anamorph: Septoria tritici; Bayer code: SEPTTR)
(§2) Wheat plants (variety Yuma) were grown from seed in a greenhouse in plastic pots with a surface area of 27.5 square centimeters (cm2) containing 50% mineral soil/50% soil-less Metro mix, with 8-12 seedlings per pot. The plants were employed for testing when the first leaf was fully emerged, which typically took 7 to 8 days after planting. Test plants were inoculated with an aqueous spore suspension of Septoria tritici either 3-days prior to (3-day curative test; 3DC) or 1-day after fungicide treatments (1-day protectant test; 1DP). After inoculation the plants were kept at 100% relative humidity (one day in a dark dew chamber followed by two days in a lighted mist chamber) to permit spores to germinate and infect the leaf. The plants were then transferred to a greenhouse until disease symptoms were fully expressed.
(§3) For the mixture studies with compound of Formula IA: Treatments consisted of fungicides, including a compound of Formula IA, epoxiconazole, prothioconazole, azoxystrobin, pyraclostrobin, penthiopyrad, isopyrazam, bixafen, boscalid, prochloraz, chlorothalonil, and isobutyric acid (3S,6S,7R,8R)-8-benzyl-3-[(3-isobutyryloxymethoxy-4-methoxypyridine-2-carbonyl)-amino]-6-methyl-4,9-dioxo-[1,5]dioxonan-7-yl ester (compound A), applied either individually or as two-way mixtures with a compound of Formula IA. Technical grades of materials were dissolved in acetone to make stock solutions, which were then used to perform three-fold dilutions in acetone either for each individual fungicide component or for the two-way mixtures. Desired fungicide rates were obtained after mixing dilutions with nine volumes of water containing 110 parts per million (ppm) Triton X-100. Ten mL fungicide solutions were applied onto six pots of plants using an automated booth sprayer, which utilized two 6218-1/4 JAUPM spray nozzles operating at 20 pounds per square inch (psi) set at opposing angles to cover both leaf surfaces. All sprayed plants were allowed to air dry prior to further handling. Control plants were sprayed in the same manner with the solvent blank.
(§4) For the mixture studies with compound of Formula IB: Compound IB and the compound B or their two-way mixtures were diluted in three-fold series using suspension concentrate (SC) formulations in 0.1% Trycol 5941. Spray solutions were applied onto plants using a track sprayer with an application volume of 200 Liters/hectare (L/Ha).
(§5) When disease reached 80 to 100% on the control plants, infection levels were assessed on treated plants visually and scored on a scale of 0 to 100 percent. Percentage of disease control was then calculated using the ratio of disease on treated plants relative to control plants.
(§6) Colby's equation was used to determine the fungicidal effects expected from the mixtures. (See Colby, S. R. Calculation of the synergistic and antagonistic response of herbicide combinations. Weeds 1967, 15, 20-22.)
(§7) The following equation was used to calculate the expected activity of mixtures containing two active ingredients, A and B:
(§8) A=observed efficacy of active component A at the same concentration as used in the mixture;
(§9) B=observed efficacy of active component B at the same concentration as used in the mixture.

In test [2] the test system is Septoria tritici (SEPTTR). The experiment in a line: 3-day curative test (3DC) vs. leaf blotch of wheat. The test is classed as in vivo. To be noted: Zymoseptoria tritici, 3DC SEPTTR, read-out: % DC Obs (percent disease control observed). The method, then:
as §1, §2, §3, §4, §5, §6, §7, §8, §9

Consider `OC(Cc1ccccc1Cl)(Cn1[nH]cnc1=S)C1(Cl)CC1` (stereo not drawn) [Prothioconazole, 2-[2-(1-chlorocyclopropyl)-3-(2-chlorophenyl)-2-hydroxypropyl]-1,2-dihydro-3H-1,2,4-triazole-3-thione], for which the pest or weed control at 0.6 ppm worked out at 2% in test [1] (application rate 0.6 ppm) and 10% in test [2] (application rate 0.6 ppm). Moreover, the values for the pest or weed control at 1.8 ppm in test [1] (application rate 1.8 ppm) and in test [2] (application rate 1.8 ppm) were 2% and 8%, respectively. For the same compound, the figures for the pest or weed control at 5.6 ppm in test [1] (application rate 5.6 ppm) and in test [2] (application rate 5.6 ppm) were 25% and 20%, respectively.
